Source: US20180125032A1, “Automated method and system for introducing Liquid iodine into drinking water” (priority 2010, published 2018)

Tests used:
[1] = Loss of I2 from water at room temperature (hydrolysis / out gassing); format: physicochemical
Procedure: The only significant anti-infective iodine species in water is molecular iodine (I2). In the pH range of 6.0<->7.0, I2 is favored when I2 is added directly into water. […] If the pH of the water is kept at about pH 6.0, I2 is favored, but if the pH is above 7.0, I2 will hydrolyze (3) to I^− and HOI and I3^− (7) can form and accumulate in the water. I have determined experimentally that I2 is lost from the water at room temperature at a linear rate of about 0.3 mcg/mL/hour when the pH of the water was adjusted to ˜pH5-5.5 with acetic acid to prolong survival of I2 in water. Thus after 24 hours >90% of the I2 is lost either to hydrolysis
or volatile I2 via out gassing. At higher pH, the iodine will dissipate faster or be converted to HOI. At neutral pH=7 the I2 loss is ˜0.5 mcg/mL/hr so that >90% is gone within 4 hours.

[2] = Pets drinking iodinated water, observation for ill effects; format: in vivo, dogs and cats

II [I2, molecular iodine]
I2 lost (hydrolysis or out gassing) ([1]; after 24 hours, ~pH5-5.5, room temperature): > 90%
I2 loss rate ([1]; neutral pH=7): ~0.5 µg/mL/h
rate of I2 loss from the water (linear) ([1]; room temperature, water adjusted to ~pH5-5.5 with acetic acid): about 0.3 mcg/mL/hour
I2 gone ([1]; within 4 hours, neutral pH=7): > 90%
ill effects ([2]; dogs and cats followed for 3 weeks, 1-5 mcg/mL in drinking water): no ill effects were noted
changes in pet behavior, food consumption or excretion ([2]; two 35 kg dogs and two 4 kg cats, drinking water with average about 5 mcg/mL I2, followed for 4 days): no obvious changes in pet behavior, food consumption or excretion
